Test results reported in patent US6277859A, “Morphinan derivative and its pharmaceutical applications” (priority 1992, dated 2001).
Structures can show the parent of a compound that is named as a salt.

Legend:
Wistar rats = test: Evaluation of diuretic action; format: in vivo, rat (male Wistar); details: sc, rat, s.c., urine output for 5 h after 20 ml/kg saline oral; for ED200: read-out: ED200, diuretic action (dose giving urine output of 200, non-dosed group = 100); for ED500: read-out: ED500, diuretic action (dose giving urine output of 500, non-dosed group = 100)
Experimental: Evaluation of Diuretic Action
7-8 week old male Wistar rats were used in this test after prohibiting from drinking water for 1 hour before testing. After discharging any urine accumulated in the bladder by gently stimulating the lower abdomens of the animals, the drug was administered subcutaneously. After 30 minutes, the animals were then forcibly given 20 ml/kg of physiological saline orally. The animals were then placed in metabolic cages immediately after administration of the drug (2 animals/cage) and urine output for 5 hours after loading with physiological saline was measured. Drug efficacy was expressed in the form of those doses resulting in urine outputs of 200 and 500, respectively, when the urine output of a non-dosed group was taken to be 100. Those doses were expressed as the ED200 and ED500 values, respectively.

μ receptor = molecular target: T1, μ receptor (Mus musculus, UniProt P42866); test: Ke with naloxone in isolated mouse vas deference preparation; format: cell-based, mouse (male ddy)
T1 construct: The isolated vas deference was filled with Krebes-Henseleit solution; from tissue; host or cells: isolated vas deferens of male ddy mouse
Experimental: (§1) A male ddy mouse was used in this test. The isolated vas deference was filled with Krebes-Henseleit solution (NaCl 118 mM; KCl 4.7 mM; CaCl2 2.5 mM; KH2 PO4 1.1 mM; NaHCO3 25 mM; and glucose 10 mM) warmed to 37° C. and suspended in a Magnus tube ventilated with 5% carbon dioxide and 95% oxygen. Electrical stimulus was performed at 0.1 Hz for 5.0 ms by means of ring-shaped platinum electrodes located above and below. Tissue contractions were recorded on a polygraph using an isometric transducer.
(§2) Then after adequately washing with nutrient solution and the contraction reaction stabilized, naloxone, a μ […], NTI, a δ […], or norBNI, a κ […], were added and the test compound was again cumulatively added after roughly 20 minutes. The Ke value was calculated using the following calculation formula from the difference in the efficacies of both agonists.
(§3) Ke=[Conc. of added agonist]/(IC50 ratio-1)
(§4) IC50 ratio IC50 in the presence of agonist/IC50 in the absence of agonist

κ receptor = molecular target: T2, κ receptor (Mus musculus, UniProt P33534); test: Ke with norBNI in isolated mouse vas deference preparation; format: cell-based, mouse (male ddy); details: for Ke norBNI: norBNI (κ)
T2 construct: The isolated vas deference was filled with Krebes-Henseleit solution; from tissue; host or cells: isolated vas deferens of male ddy mouse
Experimental: as §1, §2, §3, §4

δ receptor = molecular target: T3, δ receptor (Mus musculus, UniProt P32300); test: Ke with NTI in isolated mouse vas deference preparation; format: cell-based, mouse (male ddy); details: for Ke NTI: NTI (δ)
T3 construct: The isolated vas deference was filled with Krebes-Henseleit solution; from tissue; host or cells: isolated vas deferens of male ddy mouse
Experimental: as §1, §2, §3, §4

T3 sequence (P32300 whole entry): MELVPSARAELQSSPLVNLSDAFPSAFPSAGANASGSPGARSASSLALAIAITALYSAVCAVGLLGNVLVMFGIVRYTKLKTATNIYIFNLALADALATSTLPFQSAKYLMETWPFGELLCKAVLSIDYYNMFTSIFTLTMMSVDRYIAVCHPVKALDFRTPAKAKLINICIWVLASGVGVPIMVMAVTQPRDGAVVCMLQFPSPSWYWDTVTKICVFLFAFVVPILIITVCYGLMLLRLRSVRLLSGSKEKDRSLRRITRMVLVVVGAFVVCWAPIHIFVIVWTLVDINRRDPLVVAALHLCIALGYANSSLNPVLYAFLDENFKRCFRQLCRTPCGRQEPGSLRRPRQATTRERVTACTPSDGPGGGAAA
T2 sequence (P33534 whole entry): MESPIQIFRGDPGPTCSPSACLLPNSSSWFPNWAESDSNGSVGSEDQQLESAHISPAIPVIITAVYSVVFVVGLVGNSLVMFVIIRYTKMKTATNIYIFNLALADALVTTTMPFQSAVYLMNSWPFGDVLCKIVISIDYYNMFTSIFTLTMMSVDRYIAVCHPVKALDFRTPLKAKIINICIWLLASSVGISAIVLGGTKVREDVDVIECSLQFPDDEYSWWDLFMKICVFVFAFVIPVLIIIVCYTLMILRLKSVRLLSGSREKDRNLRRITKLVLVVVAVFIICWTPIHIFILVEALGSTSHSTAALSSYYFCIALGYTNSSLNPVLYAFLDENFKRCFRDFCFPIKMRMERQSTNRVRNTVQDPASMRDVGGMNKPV
T1 sequence (P42866 whole entry): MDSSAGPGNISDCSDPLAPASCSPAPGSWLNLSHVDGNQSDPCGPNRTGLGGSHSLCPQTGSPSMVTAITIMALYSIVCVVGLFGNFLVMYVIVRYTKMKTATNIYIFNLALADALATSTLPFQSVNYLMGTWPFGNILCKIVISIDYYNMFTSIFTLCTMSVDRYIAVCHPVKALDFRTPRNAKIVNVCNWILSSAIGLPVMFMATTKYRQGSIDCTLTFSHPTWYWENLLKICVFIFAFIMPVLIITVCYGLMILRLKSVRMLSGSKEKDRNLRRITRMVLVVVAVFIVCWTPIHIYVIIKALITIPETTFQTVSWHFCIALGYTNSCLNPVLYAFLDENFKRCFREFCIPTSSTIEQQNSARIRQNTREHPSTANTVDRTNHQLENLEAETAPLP

Row | Structure (SMILES) | ED200 (Wistar rats) [mg/kg] | selective agonist for κ receptors (in words) (κ receptor) | Ke norBNI (κ receptor) [nM] | Ke NTI (δ receptor) [nM] | other results
1 | CN(C(=O)/C=C/c1ccc(Cl)c(Cl)c1)[C@H]1CC[C@@]2(O)[C@H]3Cc4ccc(O)c5c4[C@@]2(CCN3CC2CC2)[C@H]1O5 [Compound 86, 17-cyclopropylmethyl-3,14β-dihydroxy-4,5α-epoxy-6α-(N-methyl-3,4-dichlorocinnamamido) morphinan.hydrochloride] | 0.0057 |  |  |  | 
2 | CN(C(=O)/C=C/c1ccc(C(F)(F)F)cc1)[C@@H]1CC[C@@]2(O)[C@H]3Cc4ccc(O)c5c4[C@@]2(CCN3CC2CC2)[C@H]1O5 [Compound 73, 17-cyclopropylmethyl-3,14,β-dihydroxy-4,5α-epoxy-6β-(N-methyl-4-trifluoromethylcinnamamido) morphinan.tartrate] |  | selective agonists for κ receptors | 0.272 | 78 | Ke Naloxone (μ receptor): 524 nM
3 | CCCCOC(=O)N(C)[C@@H]1CC[C@@]2(O)[C@H]3Cc4ccc(O)c5c4[C@@]2(CCN3CC2CC2)[C@H]1O5 [Compound 59, 17-cyclopropylmethyl-3,14β-dihydroxy-4,5α-epoxy-6β-(N-methylbutyroxycarbamido)morphinan.tartrate] |  | selective agonists for κ receptors | 0.151 | 47.3 | Ke Naloxone (μ receptor): 21.3 nM
4 | CN(C(=O)Cc1cccc(C(F)(F)F)c1)[C@H]1CC[C@@]2(O)[C@H]3Cc4ccc(O)c5c4[C@@]2(CCN3CC2CC2)[C@H]1O5 [Compound 108, 17-cyclopropylmethyl-3,14β-dihydroxy-4,5α-epoxy-6α-(N-methyl-3-trifluoromethylphenylacetamido) morphinan.hydrochloride] | 0.021 |  |  |  | 
5 | CCC/C=C/C(=O)N(C)[C@H]1CC[C@@]2(O)[C@H]3Cc4ccc(O)c5c4[C@@]2(CCN3CC2CC2)[C@H]1O5 [Compound 95, 17-cyclopropylmethyl-3,14β-dihydroxy-4,5α-epoxy-6α-(N-methyl-trans-2-hexenamido)morphinan.tartrate] | 0.0028 |  |  |  | 
6 | CN(C(=O)/C=C/c1ccsc1)[C@H]1CC[C@@]2(O)[C@H]3Cc4ccc(O)c5c4[C@@]2(CCN3CC2CC2)[C@H]1O5 [Compound 91, 17-cyclopropylmethyl-3,14β-dihydroxy-4,5α-epoxy-6α-[N-methyl-trans-3-(3-thienyl)acrylamido]morphinan.tartrate] | 0.0094 | selective agonists for κ receptors | 0.699 | 450 | ED500 (Wistar rats): 0.96 mg/kg
7 | CN(C(=O)/C=C/C1CCCCC1)[C@H]1CC[C@@]2(O)[C@H]3Cc4ccc(O)c5c4[C@@]2(CCN3CC2CC2)[C@H]1O5 [Compound 50, 17-cyclopropylmethyl-4,5α-epoxy-3,14β-dihydroxy-6α-(N-methyl-trans-3-cyclohexylacrylamido)morphinan.hydrochloride] | 0.0021 |  |  |  | 
8 | CN(C(=O)CCc1ccccc1)[C@@H]1CC[C@@]2(O)[C@H]3Cc4ccc(O)c5c4[C@@]2(CCN3CC2CC2)[C@H]1O5 [Compound 57, 17-cyclopropylmethyl-3,14β-dihydroxy-4,5α-epoxy-60-(N-methyl-3-phenylpropionamido) morphinan.hydrochloride] |  | selective agonists for κ receptors | 0.0124 | 747 | 
9 | C=CCN1CC[C@]23c4c5ccc(O)c4O[C@H]2[C@@H](N(C)C(=O)Cc2ccc(Cl)c(Cl)c2)CC[C@@]3(O)[C@H]1C5 [Compound 122, 17-allyl-3,14β-dihydroxy-4,5α-epoxy-6α-(N-methyl-3,4-dichlorophenylacetamido)morphinan.hydrochloride] |  | selective agonists for κ receptors | 0.358 | 42.7 | Ke Naloxone (μ receptor): 59.5 nM
10 | CN(C(=O)OCc1ccccc1)[C@@H]1CC[C@@]2(O)[C@H]3Cc4ccc(O)c5c4[C@@]2(CCN3CC2CC2)[C@H]1O5 [Compound 56, 17-cyclopropylmethyl-3,14β-dihydroxy-4,5α-epoxy-60-(N-methylbenzyloxycarbamido)morphinan.hydrochloride] | 0.0028 |  |  |  | 
11 | CCCCCC(=O)N(C)[C@@H]1CC[C@@]2(O)[C@H]3Cc4ccc(O)c5c4[C@@]2(CCN3CC2CC2)[C@H]1O5 [Compound 62, 17-cyclopropylmethyl-3,14β-dihydroxy-4,5α-epoxy-6β-(N-methylhexanamido)morphinan.tartrate] |  | selective agonists for κ receptors | 0.203 | 90.2 | 
12 | O=C(Cc1ccc(Cl)c(Cl)c1)N[C@H]1CC[C@@]2(O)[C@H]3Cc4ccc(O)c5c4[C@@]2(CCN3CC2CC2)[C@H]1O5 [Compound 52, 17-cyclopropylmethyl-4,5α-epoxy-3,14β-dihydroxy-6α-(3,4-dichlorophenylacetoamido) morphinan.hydrochloride] |  | selective agonists for κ receptors |  |  | 
13 | CN(C(=O)C#Cc1ccc(C(F)(F)F)cc1)[C@H]1CC[C@@]2(O)[C@H]3Cc4ccc(O)c5c4[C@@]2(CCN3CC2CC2)[C@H]1O5 [Compound 126, 17-Cyclopropylmethyl-3,14β-dihydroxy-4,5α-epoxy-6α-[N-methyl-3-(4-trifluoromethylphenyl)propiolamido] morphinan.0.5 tartrate] |  |  | 1.20 | 0.0065 | Ke Naloxone (μ receptor): 40.2 nM; selective agonist for δ receptors (in words) (δ receptor): selective agonists for δ receptors
14 | CC(=O)Oc1ccc2c3c1O[C@H]1[C@H](N(C)C(=O)/C=C/c4cccc(C(F)(F)F)c4)CC[C@@]4(O)[C@@H](C2)N(CC2CC2)CC[C@]314 [Compound 141, 17-cyclopropylmethyl-3-acetoxy-14β-hydroxy-4,5α-epoxy-6β-(N-methyl-3-trifluoromethylcinnamamido)morphinan.tartrate] |  | selective agonists for κ receptors | 1.39 | 184 | Ke Naloxone (μ receptor): 142 nM
15 | CN(C(=O)CC(=O)c1ccccc1)[C@@H]1CC[C@@]2(O)[C@H]3Cc4ccc(O)c5c4[C@@]2(CCN3CC2CC2)[C@H]1O5 [Compound 103, 17-cyclopropylmethyl-3,14β-dihydroxy-4,5α-epoxy-6β-(N-methylbenzoylacetamido)morphinan.tartrate] |  | selective agonists for κ receptors | 0.657 |  | 
16 | CN(C(=O)Cc1ccc(F)c(F)c1)[C@H]1CC[C@@]2(O)[C@H]3Cc4ccc(O)c5c4[C@@]2(CCN3CC2CC2)[C@H]1O5 [Compound 105, 17-cyclopropylmethyl-3,14β-dihydroxy-4,5α-epoxy-6α-(N-methyl-3,4-difluorophenylacetamido)morphinan.hydrochloride] | 0.019 |  |  |  | ED500 (Wistar rats): 3.3 mg/kg
17 | CCCCCCC(=O)N(C)[C@H]1CC[C@@]2(O)[C@H]3Cc4ccc(O)c5c4[C@@]2(CCN3CC2CC2)[C@H]1O5 [Compound 46, 17-cyclopropylmethyl-3,14β-dihydroxy-4,5α-epoxy-6α-(N-methylheptanamido)morphinan.hydrochloride] |  | selective agonists for κ receptors | 0.440 |  | 
18 | CN(C(=O)/C=C/c1cccc([N+](=O)[O-])c1)[C@@H]1CC[C@@]2(O)[C@H]3Cc4ccc(O)c5c4[C@@]2(CCN3CC2CC2)[C@H]1O5 [Compound 104, 17-cyclopropylmethyl-3,14β-dihydroxy-4,5α-epoxy-6β-(N-methyl-3-nitrocinnamamido)morphinan.tartrate] |  |  | 1.40 | 89 | Ke Naloxone (μ receptor): 185 nM
19 | CN(C(=O)Cc1csc2ccccc12)[C@H]1CC[C@@]2(O)[C@H]3Cc4ccc(O)c5c4[C@@]2(CCN3CC2CC2)[C@H]1O5 [Compound 107, 17-cyclopropylmethyl-3,14β-dihydroxy-4,5α-epoxy-6α-(N-methyl-3-benzo[b]thienylacetamido)morphinan.hydrochloride] | 0.0061 |  |  |  | ED500 (Wistar rats): 0.2 mg/kg
20 | CN(C(=O)Cc1ccc(Cl)c(Cl)c1)[C@@H]1CC[C@@]2(O)[C@H]3Cc4ccc(O)c5c4[C@@]2(CCN3CC2CC2)[C@H]1O5 [Compound 53, 17-cyclopropylmethyl-4,5α-epoxy-3,14β-dihydroxy-6β-(N-methyl-3,4-dichlorophenylacetoamido)morphinan.hydrochloride] |  |  | 0.21 | 1676 | 
21 | CN(C(=O)Cc1ccc(Br)cc1)[C@H]1CC[C@@]2(O)[C@H]3Cc4ccc(O)c5c4[C@@]2(CCN3CC2CC2)[C@H]1O5 [Compound 28, 17-cyclopropylmethyl-3,14β-dihydroxy-4,5α-epoxy-6α-(N-methyl-4-bromophenylacetamido)morphinan.hydrobromide] | 0.02 |  |  |  | 
